According to patent US20260297081A1, “COMPOUNDS AND METHODS OF TREATING CANCERS” (Cullgen Inc., priority 2023, published 2026):

Key:
MCF7 cells = test: Anti-proliferation (viability) of MCF7 cells (Table 7, FIG. 2B); type: cell-based; conditions: Homo sapiens, MCF7, MCF7 cells, 3-6 days, 10-point serial dilution; read-out: GI IC50 in MCF-7
Calu-1 cells = test: Anti-proliferation (viability) of NSCLC Calu-1 cells, 3 days (Table 7, FIG. 2B); type: cell-based; conditions: Homo sapiens, 72 h; Calu-1 cells, 3 days, 10-point serial dilution; read-out: GI IC50 in Calu-1
Procedure, shortened: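 Cells treated with heterobifunctional compounds in 10-point serial dilution, then viability measured; Calu-1 NSCLC cells exposed for 3 days, ER+ T47D breast cancer cells for 6 days.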

SMILES	IC50 (MCF7 cells) [nM]	IC50 (Calu-1 cells) [nM]
CCN1CCc2cc(-c3nc(Nc4ccc(CN5CCN(CC(=O)NC6CC7(C6)CC(Nc6nc(NC(C)C)ccc6C(=O)Nc6ccc(N(C)C)nn6)C7)CC5)cn4)ncc3F)ccc2C1=O (centres unmarked) [CPD-554, N-(6-(dimethylamino)pyridazin-3-yl)-2-((6-(2-(4-((6-((4-(2-ethyl-1-oxo-1,2,3,4-tetrahydroisoquinolin-6-yl)-5-fluoropyrimidin-2-yl)amino)pyridin-3-yl)methyl)piperazin-1-yl)acetamido)spiro[3.3]heptan-2-yl)amino)-6-(isopropylamino)nicotinamide]	> 100	≥ 50
[2H]C([2H])([2H])Nc1ccc(C(=O)Nc2cn(C)c(C3CC3)n2)c(NC2CCN(C(=O)CCN3CCN(c4ccc(Nc5ncc6c(C)c(C(C)=O)c(=O)n(C7CCCC7)c6n5)nc4)CC3)C2)n1 (centres unmarked) [CPD-273, 2-((1-(3-(4-(6-((6-acetyl-8-cyclopentyl-5-methyl-7-oxo-7,8-dihydropyrido[2,3-d]pyrimidin-2-yl)amino)pyridin-3-yl)piperazin-1-yl)propanoyl)pyrrolidin-3-yl)amino)-N-(2-cyclopropyl-1-methyl-1H-imidazol-4-yl)-6-((methyl-d3)amino)nicotinamide]	> 100	≥ 50
CC(C)Nc1ccc(C(=O)Nc2ccc(N(C)C)nn2)c(N[C@H]2CC[C@H](C(=O)N3CCC(N4CCN(c5ccc(Nc6ncc7cc(C(F)F)c(=O)n(C8CCCC8)c7n6)nc5)CC4)C3)CC2)n1 (stereo partly drawn) [CPD-559, 2-((trans-4-(3-(4-(6-((8-cyclopentyl-6-(difluoromethyl)-7-oxo-7,8-dihydropyrido[2,3-d]pyrimidin-2-yl)amino)pyridin-3-yl)piperazin-1-yl)pyrrolidine-1-carbonyl)cyclohexyl)amino)-N-(6-(dimethylamino)pyridazin-3-yl)-6-(isopropylamino)nicotinamide]	> 100	10 to 50
[2H]C([2H])([2H])Nc1ccc(C(=O)Nc2cn(C)c(C3CC3)n2)c(NC2CC(NC(=O)N3CCN(c4ccc(Nc5ncc6c(C)c(C(C)=O)c(=O)n(C7CCCC7)c6n5)nc4)CC3)C2)n1 (centres unmarked) [CPD-287, 4-(6-((6-acetyl-8-cyclopentyl-5-methyl-7-oxo-7,8-dihydropyrido[2,3-d]pyrimidin-2-yl)amino)pyridin-3-yl)-N-(3-((3-((2-cyclopropyl-1-methyl-1H-imidazol-4-yl)carbamoyl)-6-((methyl-d3)amino)pyridin-2-yl)amino)cyclobutyl)piperazine-1-carboxamide]	> 100	≥ 50
CC(=O)c1c(C)c2cnc(Nc3ccc(N4CCN(C(=O)NC5CC(Nc6nc(NC(C)C)ccc6C(=O)Nc6cn(C)c(C7CC7)n6)C5)CC4)cn3)nc2n(C2CCCC2)c1=O (centres unmarked) [CPD-289, 4-(6-((6-acetyl-8-cyclopentyl-5-methyl-7-oxo-7,8-dihydropyrido[2,3-d]pyrimidin-2-yl)amino)pyridin-3-yl)-N-(3-((3-((2-cyclopropyl-1-methyl-1H-imidazol-4-yl)carbamoyl)-6-(isopropylamino)pyridin-2-yl)amino)cyclobutyl)piperazine-1-carboxamide]	> 100	≥ 50
[2H]C([2H])([2H])Nc1ccc(C(=O)Nc2cccc(C)n2)c(NC2CCN(C(=O)CN3CCN(c4ccc(Nc5ncc6c(C)c(C(C)=O)c(=O)n(C7CCCC7)c6n5)nc4)CC3)CC2)n1 [CPD-270, 2-((1-(2-(4-(6-((6-acetyl-8-cyclopentyl-5-methyl-7-oxo-7,8-dihydropyrido[2,3-d]pyrimidin-2-yl)amino)pyridin-3-yl)piperazin-1-yl)acetyl)piperidin-4-yl)amino)-6-((methyl-d3)amino)-N-(6-methylpyridin-2-yl)nicotinamide]	> 100	≥ 50
CC(=O)c1c(C)c2cnc(Nc3ccc(N4CCN(C5CCN(C(=O)N6CC7(CCC(Nc8nc(NC(C)C)ccc8C(=O)Nc8ccc(N(C)C)nn8)CC7)C6)C5)CC4)cn3)nc2n(C2CCCC2)c1=O (centres unmarked) [CPD-555, 2-((2-(3-(4-(6-((6-acetyl-8-cyclopentyl-5-methyl-7-oxo-7,8-dihydropyrido[2,3-d]pyrimidin-2-yl)amino)pyridin-3-yl)piperazin-1-yl)pyrrolidine-1-carbonyl)-2-azaspiro[3.5]nonan-7-yl)amino)-N-(6-(dimethylamino)pyridazin-3-yl)-6-(isopropylamino)nicotinamide]	50 to 100	≤ 10
[2H]C([2H])([2H])Nc1ccc(C(=O)Nc2cc(C)n(C)n2)c(N[C@H]2CC[C@H](C(=O)N3CCC(N4CCN(c5ccc(Nc6ncc7c(C)c(C(C)=O)c(=O)n(C8CCCC8)c7n6)nc5)CC4)C3)CC2)n1 (some centres unmarked) [CPD-477, 2-((4-(3-(4-(6-((6-acetyl-8-cyclopentyl-5-methyl-7-oxo-7,8-dihydropyrido[2,3-d]pyrimidin-2-yl)amino)pyridin-3-yl)piperazin-1-yl)pyrrolidine-1-carbonyl)cyclohexyl)amino)-N-(1,5-dimethyl-1H-pyrazol-3-yl)-6-((methyl-d3)amino)nicotinamide]	> 100	10 to 50
CC(=O)c1c(C)c2cnc(Nc3ccc(CN4CCN(CC(=O)N5CCC(Nc6nc(NC(C)C)ccc6C(=O)Nc6cc7n(n6)CCC7)CC5)CC4)cn3)nc2n(C2CCCC2)c1=O [CPD-530, 2-((1-(2-(4-((6-((6-acetyl-8-cyclopentyl-5-methyl-7-oxo-7,8-dihydropyrido[2,3-d]pyrimidin-2-yl)amino)pyridin-3-yl)methyl)piperazin-1-yl)acetyl)piperidin-4-yl)amino)-N-(5,6-dihydro-4H-pyrrolo[1,2-b]pyrazol-2-yl)-6-(isopropylamino)nicotinamide]	> 100	10 to 50
CC(=O)c1c(C)c2cnc(Nc3ccc(N4CCN(CCC(=O)N5CC6(CC(Nc7nc(NC(C)C)ccc7C(=O)Nc7ccc(N(C)C)nn7)C6)C5)C(C)(C)C4)cn3)nc2n(C2CCCC2)c1=O [CPD-459, 2-((2-(3-(4-(6-((6-acetyl-8-cyclopentyl-5-methyl-7-oxo-7,8-dihydropyrido[2,3-d]pyrimidin-2-yl)amino)pyridin-3-yl)-2,2-dimethylpiperazin-1-yl)propanoyl)-2-azaspiro[3.3]heptan-6-yl)amino)-N-(6-(dimethylamino)pyridazin-3-yl)-6-(isopropylamino)nicotinamide]	> 100	≤ 10

More lines, now with the values ahead:

IC50 (MCF7 cells) [nM]	IC50 (Calu-1 cells) [nM]	SMILES
< 50	≤ 10	[2H]C([2H])([2H])Nc1ccc(C(=O)Nc2ccc(N(C)C)nn2)c(NC2CC(C(=O)N3CCC(N4CCN(c5ccc(Nc6ncc7c(C)c(C(C)=O)c(=O)n(C8CCCC8)c7n6)nc5)CC4)C3)C2)n1 (centres unmarked) [CPD-471, 2-((3-(3-(4-(6-((6-acetyl-8-cyclopentyl-5-methyl-7-oxo-7,8-dihydropyrido[2,3-d]pyrimidin-2-yl)amino)pyridin-3-yl)piperazin-1-yl)pyrrolidine-1-carbonyl)cyclobutyl)amino)-N-(6-(dimethylamino)pyridazin-3-yl)-6-((methyl-d3)amino)nicotinamide]
50 to 100	≤ 10	[2H]C([2H])([2H])Nc1ccc(C(=O)Nc2cc(C)on2)c(NC2CC(CNC(=O)CN3CCN(c4ccc(Nc5ncc6c(C)c(C(C)=O)c(=O)n(C7CCCC7)c6n5)nc4)CC3)C2)n1 (centres unmarked) [CPD-283, 2-((3-((2-(4-(6-((6-acetyl-8-cyclopentyl-5-methyl-7-oxo-7,8-dihydropyrido[2,3-d]pyrimidin-2-yl)amino)pyridin-3-yl)piperazin-1-yl)acetamido)methyl)cyclobutyl)amino)-6-((methyl-d3)amino)-N-(5-methylisoxazol-3-yl)nicotinamide]
< 50	≤ 10	CC(=O)c1c(C)c2cnc(Nc3ccc(N4CCN(CC(=O)NC5CC6(C5)CC(Nc5nc(NC(C)C)ccc5C(=O)Nc5ccc(N(C)C)nn5)C6)CC4)cn3)nc2n(C2CCCC2)c1=O (centres unmarked) [CPD-272, 2-((6-(2-(4-(6-((6-acetyl-8-cyclopentyl-5-methyl-7-oxo-7,8-dihydropyrido[2,3-d]pyrimidin-2-yl)amino)pyridin-3-yl)piperazin-1-yl)acetamido)spiro[3.3]heptan-2-yl)amino)-N-(6-(dimethylamino)pyridazin-3-yl)-6-(isopropylamino)nicotinamide]
< 50	≤ 10	CC(=O)c1c(C)c2cnc(Nc3ccc(CN4CCN(CC(=O)N5CCC6(CCC(Nc7nc(NC(C)C)ccc7C(=O)Nc7cn(C)c(C8CC8)n7)C6)C5)CC4)cn3)nc2n(C2CCCC2)c1=O (centres unmarked) [CPD-548, 2-((2-(2-(4-((6-((6-acetyl-8-cyclopentyl-5-methyl-7-oxo-7,8-dihydropyrido[2,3-d]pyrimidin-2-yl)amino)pyridin-3-yl)methyl)piperazin-1-yl)acetyl)-2-azaspiro[4.4]nonan-7-yl)amino)-N-(2-cyclopropyl-1-methyl-1H-imidazol-4-yl)-6-(isopropylamino)nicotinamide]
< 50	≤ 10	CC(=O)c1c(C)c2cnc(Nc3ccc(CN4CCC(NC(=O)C5CC6(CC(Nc7nc(NC(C)C)ccc7C(=O)Nc7ccc(N(C)C)nn7)C6)C5)CC4)cn3)nc2n(C2CCCC2)c1=O (centres unmarked) [CPD-486, 2-((6-((1-((6-((6-acetyl-8-cyclopentyl-5-methyl-7-oxo-7,8-dihydropyrido[2,3-d]pyrimidin-2-yl)amino)pyridin-3-yl)methyl)piperidin-4-yl)carbamoyl)spiro[3.3]heptan-2-yl)amino)-N-(6-(dimethylamino)pyridazin-3-yl)-6-(isopropylamino)nicotinamide]
< 50	≤ 10	CC(=O)c1c(C)c2cnc(Nc3ccc(N4CCN(C5CCN(C(=O)[C@H]6CC[C@H](Nc7cc(C(C)C)ccc7C(=O)Nc7ccc(N(C)C)nn7)CC6)C5)CC4)cn3)nc2n(C2CCCC2)c1=O (stereo partly drawn) [CPD-528, 2-((trans-4-(3-(4-(6-((6-acetyl-8-cyclopentyl-5-methyl-7-oxo-7,8-dihydropyrido[2,3-d]pyrimidin-2-yl)amino)pyridin-3-yl)piperazin-1-yl)pyrrolidine-1-carbonyl)cyclohexyl)amino)-N-(6-(dimethylamino)pyridazin-3-yl)-4-isopropylbenzamide]
